Source: a compilation of properties of binary mixtures (doi:10.1021/acs.jced.0c01028)

Experiment: xn = mol fraction of the nth substance listed
Settings: 81.5 kPa

CCCC[n+]1ccn(C)c1.N#C[S-] + CCCCC(C)O
speed of sound (298.15 K, x1 = 1): 1762 m/s
speed of sound (308.15 K, x1 = 1): 1738 m/s
speed of sound (318.15 K, x1 = 1): 1714 m/s
speed of sound (328.15 K, x1 = 1): 1691 m/s
speed of sound (338.15 K, x1 = 1): 1668 m/s

CCCCC(C)O (configuration not stated) + CCCC[n+]1ccn(C)c1.N#C[S-]
speed of sound (288.15 K, x2 = 0): 1299 m/s
speed of sound (288.15 K, x2 = 0.2003): 1397 m/s
speed of sound (288.15 K, x2 = 0.2992): 1448 m/s
speed of sound (288.15 K, x2 = 0.3988): 1497 m/s
speed of sound (288.15 K, x2 = 0.4964): 1549 m/s
speed of sound (288.15 K, x2 = 0.6029): 1601 m/s
speed of sound (288.15 K, x2 = 0.6993): 1653 m/s
speed of sound (288.15 K, x2 = 0.8987): 1748 m/s
speed of sound (298.15 K, x2 = 0.1011): 1316 m/s
speed of sound (298.15 K, x2 = 0.2003): 1366 m/s
speed of sound (298.15 K, x2 = 0.3988): 1469 m/s
speed of sound (298.15 K, x2 = 0.4964): 1521 m/s
speed of sound (298.15 K, x2 = 0.6029): 1574 m/s
speed of sound (298.15 K, x2 = 0.6993): 1628 m/s
speed of sound (298.15 K, x2 = 0.7996): 1673 m/s
speed of sound (298.15 K, x2 = 0.8987): 1724 m/s
speed of sound (308.15 K, x2 = 0): 1226 m/s
speed of sound (308.15 K, x2 = 0.1011): 1283 m/s
speed of sound (308.15 K, x2 = 0.2003): 1335 m/s
speed of sound (308.15 K, x2 = 0.2992): 1389 m/s
speed of sound (308.15 K, x2 = 0.3988): 1441 m/s
speed of sound (308.15 K, x2 = 0.4964): 1494 m/s
speed of sound (308.15 K, x2 = 0.6029): 1549 m/s
speed of sound (308.15 K, x2 = 0.6993): 1603 m/s
speed of sound (308.15 K, x2 = 0.8987): 1700 m/s
speed of sound (318.15 K, x2 = 0): 1189 m/s
speed of sound (318.15 K, x2 = 0.2003): 1304 m/s
speed of sound (318.15 K, x2 = 0.4964): 1471 m/s
speed of sound (318.15 K, x2 = 0.6029): 1530 m/s
speed of sound (318.15 K, x2 = 0.6993): 1581 m/s
speed of sound (318.15 K, x2 = 0.7996): 1632 m/s
speed of sound (318.15 K, x2 = 0.8987): 1676 m/s
speed of sound (328.15 K, x2 = 0): 1153 m/s
speed of sound (328.15 K, x2 = 0.2992): 1331 m/s
speed of sound (328.15 K, x2 = 0.3988): 1385 m/s
speed of sound (328.15 K, x2 = 0.4964): 1441 m/s
speed of sound (328.15 K, x2 = 0.6029): 1498 m/s
speed of sound (328.15 K, x2 = 0.6993): 1554 m/s
speed of sound (328.15 K, x2 = 0.7996): 1601 m/s
speed of sound (328.15 K, x2 = 0.8987): 1653 m/s
speed of sound (338.15 K, x2 = 0): 1117 m/s
speed of sound (338.15 K, x2 = 0.1011): 1183 m/s
speed of sound (338.15 K, x2 = 0.2992): 1302 m/s
speed of sound (338.15 K, x2 = 0.3988): 1357 m/s
speed of sound (338.15 K, x2 = 0.6029): 1474 m/s
speed of sound (338.15 K, x2 = 0.7996): 1577 m/s
speed of sound (338.15 K, x2 = 0.8987): 1630 m/s
